According to patent US20260250320A1, “LIPIDATED PEPTIDE INHIBITORS OF INTERLEUKIN-23 RECEPTOR” (Janssen Pharmaceutica NV, priority 2023, published 2026):
*1 amine or outer side, *2 acyl side, *3 side chain or, on linkers, in order; H or OH if unused. Where a SMILES comes first, the peptide text is derived from it. Bridges are numbered along the chain shown (N, C = ends). Side-chain parts run from the residue outwards. [ ]: non-standard residue; d: D form. The star is where a group is joined. ξ: configuration not given here. X23 = CN(CCOCCOCC(=O)N(C)CCOCCOCC(=O)*)C(=O)CC[C@H](C(=O)O)N(C)C(=O)CCCCCCCCCCCCCCCCC(=O)O; Me3N+CH2CH2(OCH2CH2)4CO = C[N+](C)(C)CCOCCOCCOCCOCCC(=O)*; PEG12 = NCCOCCOCCOCCOCCOCCOCCOCCOCCOCCOCCOCCOCCC(=O)O; Trp(7-Me) = Cc1cccc2c(C[C@H](N)C(=O)O)c[nH]c12; d(γGlu) = O=C(O)[C@@H](CCC(=O)[*:2])N[*:1]; C18 diacid = O=C(O)CCCCCCCCCCCCCCCCC(=O)*; X6 = CN(CC[C@H](N[*:1])C(=O)[*:2])[*:3]; γGlu = O=C(O)[C@H](CCC(=O)[*:2])N[*:1]; 2Nal = N[C@@H](Cc1ccc2ccccc2c1)C(=O)O; AEF = NCCOc1ccc(C[C@H](N)C(=O)O)cc1; X2 = C[N+](C)(C)C[C@@H](CC(=O)O)N*; ξAEF = NCCOc1ccc(CC(N)C(=O)O)cc1; 3Pal = N[C@@H](Cc1cccnc1)C(=O)O; NMeK = CN[C@@H](CCCCN)C(=O)O; Pen = CC(C)(S)[C@H](N)C(=O)O; Suc = O=C(CCC(=O)[*:2])[*:1]; Thp = NC1(C(=O)O)CCOCC1; AEEA = NCCOCCOCC(=O)O; ξK = NCCCCC(N)C(=O)O; Sar = CNCC(=O)O

Key:
[1] = test system: IL-23-stimulated phosphorylated STAT3 in peripheral blood mononuclear cells (PBMCs); test: PBMC pSTAT3 Assay; assay type: cell-based; conditions: PBMCs from healthy donors; 30 min preincubation with peptide; IL-23 5 ng/mL for 30 min; phospho-STAT3 by MSD
How it was run: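 Healthy-donor PBMCs expanded 4 days on anti-CD3 with 100 ng/mL IL-1β, starved ~4 h in RPMI-0.1% BSA, preincubated 30 min with peptide, then stimulated 30 min at 37 °C with 5 ng/mL IL-23. Lysate pSTAT3 measured by MSD phospho-STAT panel; IC50 derived.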

IL-23R = biological target: T1, IL-23R (Homo sapiens, UniProt Q5VWK5); test: IL23R Reporter Assay; assay type: cell-based; conditions: HEK293 cells containing IL-23R, IL-12Rβ1 and STAT-inducible firefly luciferase reporter; 10 ng/mL IL-23 (EC90); 5 h
T1 construct: HEK293 cells containing IL-23R, IL-12Rβ1 and a firefly luciferase reporter gene driven by a STAT-inducible promoter (Promega); host or cells: HEK293
T1 sequence (Q5VWK5 24-629): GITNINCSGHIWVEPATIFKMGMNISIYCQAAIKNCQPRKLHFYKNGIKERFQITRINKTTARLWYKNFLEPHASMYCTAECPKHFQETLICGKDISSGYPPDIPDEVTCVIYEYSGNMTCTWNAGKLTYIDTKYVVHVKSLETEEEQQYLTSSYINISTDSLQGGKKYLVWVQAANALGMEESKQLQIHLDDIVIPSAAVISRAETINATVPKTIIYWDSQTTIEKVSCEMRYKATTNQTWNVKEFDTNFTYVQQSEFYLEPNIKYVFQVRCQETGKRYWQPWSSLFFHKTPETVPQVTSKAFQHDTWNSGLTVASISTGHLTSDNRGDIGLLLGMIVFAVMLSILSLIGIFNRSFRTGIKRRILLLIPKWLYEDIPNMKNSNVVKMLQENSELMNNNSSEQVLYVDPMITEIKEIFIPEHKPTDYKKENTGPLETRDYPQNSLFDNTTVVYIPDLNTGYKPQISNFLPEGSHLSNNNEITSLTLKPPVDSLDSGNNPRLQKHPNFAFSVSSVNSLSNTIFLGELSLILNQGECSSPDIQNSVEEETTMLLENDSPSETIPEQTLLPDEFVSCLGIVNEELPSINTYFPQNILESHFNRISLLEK
How it was run: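 HEK293 cells carrying IL-23R, IL-12Rβ1 and a STAT-driven firefly luciferase reporter (4000 cells/well) received compound, then 10 ng/mL IL-23 solution (EC90), and were incubated for 5 h at 37° C. BioGlo luminescence was normalised to IL-23 alone (0%) and 30 μM control inhibitor (100%). IC50 came from a 4-parameter Hill fit.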

Row | SMILES | IC50 [1] [nM] | IC50 (IL-23R) [nM]
1 | CC(=O)NCCCC[C@@H]1NC(=O)[C@H](Cc2c[nH]c3c(C)cccc23)NC(=O)[C@H]([C@@H](C)O)NC(=O)[C@H](CC(N)=O)NC(=O)[C@@H](NC(=O)[C@@H](CCCNC(=N)N)NC(C)=O)C(C)(C)SSC(C)(C)[C@@H](C(=O)N[C@@H](Cc2ccc(OCCN)cc2)C(=O)N[C@@H](Cc2ccc3ccccc3c2)C(=O)NC2(C(=O)N[C@@H](CCC(=O)O)C(=O)N[C@@H](CC(N)=O)C(=O)N[C@@H](Cc3cccnc3)C(=O)N(C)[C@@H](CCCCNC(=O)COCCOCCN(C)C(=O)COCCOCCN(C)C(=O)CC[C@H](C(=O)O)N(C)C(=O)CCCCCCCCCCCCCCCCC(=O)O)C(N)=O)CCOCC2)NC1=O [compound 80, MeCO-r-Pen(3)-N-T-7MeW-K(Ac)-Pen(3)-AEF-2Nal-THP-E-N-3Pya-NMeK(PEG2NMePEG2NMegENMeC18OH)-CONH2] (Ac-[dR][Pen]NT[Trp(7-Me)]K(Ac)[Pen][AEF][2Nal][Thp]EN[3Pal][NMeK](X23)-NH2; disulfide 2-7) | < 0.5 | 50 to 500
2 | CC(=O)NCCCC[C@@H]1NC(=O)[C@H](Cc2c[nH]c3c(C)cccc23)NC(=O)[C@H]([C@@H](C)O)NC(=O)[C@H](CCCCNC(=O)CCOCCOCCOCCOCCOCCOCCOCCOCCOCCOCCOCCOCCNC(=O)CC[C@H](NC(=O)CCCCCCCCCCCCCCCCC(=O)O)C(=O)O)NC(=O)[C@@H](NC(=O)[C@@H](CCCNC(=N)N)NC(C)=O)C(C)(C)SSC(C)(C)[C@@H](C(=O)N[C@@H](Cc2ccc(OCCN)cc2)C(=O)N[C@@H](Cc2ccc3ccccc3c2)C(=O)NC2(C(=O)N[C@@H](CCC(=O)O)C(=O)N[C@@H](CC(N)=O)C(=O)N[C@@H](Cc3cccnc3)C(=O)N(C)CC(N)=O)CCOCC2)NC1=O [compound 99, MeCO-r-Pen(3)-K(PEG12gEC20OH)-T-7MeW-K(Ac)-Pen(3)-AEF-2Nal-THP-E-N-3Pya-Sar-CONH2] (Ac-[dR][Pen]K([PEG12-γGlu-C18 diacid])T[Trp(7-Me)]K(Ac)[Pen][AEF][2Nal][Thp]EN[3Pal][Sar]-NH2; disulfide 2-7) | < 0.5 | < 50
3 | CC(=O)NC(CCCCNC(=O)COCCOCCNC(=O)COCCOCCNC(=O)CC[C@@H](NC(=O)CCCCCCCCCCCCCCCCC(=O)O)C(=O)O)C(=O)N[C@@H]1C(=O)N[C@@H](CC(N)=O)C(=O)N[C@@H]([C@@H](C)O)C(=O)N[C@@H](Cc2c[nH]c3c(C)cccc23)C(=O)N[C@@H](CCCCNC(=O)CCC(=O)N[C@H](CC(=O)O)C[N+](C)(C)C)C(=O)N[C@H](C(=O)N[C@@H](Cc2ccc(OCCN)cc2)C(=O)N[C@@H](Cc2ccc3ccccc3c2)C(=O)NC2(C(=O)N[C@@H](CCC(=O)O)C(=O)N[C@@H](CC(N)=O)C(=O)N[C@@H](Cc3cccnc3)C(=O)N(C)CC(N)=O)CCOCC2)C(C)(C)SSC1(C)C (stereo partly drawn) [compound 34, MeCO-k(PEG2PEG2gEC18OH)-Pen(3)-N-T-7MeW-K(d)-Pen(3)-AEF-2Nal-THP-E-N-3Pya-Sar-CONH2] (Ac-[ξK]([AEEA-AEEA-d(γGlu)-C18 diacid])[Pen]NT[Trp(7-Me)]K([Suc-X2])[Pen][AEF][2Nal][Thp]EN[3Pal][Sar]-NH2; disulfide 2-7) | < 0.5 | < 50
4 | Cc1cccc2c(C[C@@H]3NC(=O)[C@H]([C@@H](C)O)NC(=O)[C@H](CC(=O)N(C)C)NC(=O)[C@@H](NC(=O)CCOCCOCCOCCOCC[N+](C)(C)C)C(C)(C)SSC(C)(C)[C@@H](C(=O)NC(Cc4ccc(OCCN)cc4)C(=O)N[C@@H](Cc4ccc5ccccc5c4)C(=O)NC4(C(=O)N[C@@H](CCC(=O)O)C(=O)N[C@@H](CC(N)=O)C(=O)N[C@@H](Cc5cccnc5)C(=O)N(C)[C@@H](CCCCNC(=O)COCCOCCNC(=O)COCCOCCNC(=O)CC[C@H](NC(=O)CCCCCCCCCCCCCCCCC(=O)O)C(=O)O)C(N)=O)CCOCC4)NC(=O)[C@H](CCN(C)C(=O)CCOCCOCCOCCOCC[N+](C)(C)C)NC3=O)c[nH]c12 (some centres unmarked) [compound 153, cPEG5aCO-Pen(3)-N(N(Me)2)-T-7MeW-Dab(NMecPEG5a)-Pen(3)-AEF-2Nal-THP-E-N-3Pya-NMeK(PEG2PEG2gEC18OH)-CONH2] ({Me3N+CH2CH2(OCH2CH2)4CO}-[Pen]D(NMe2)T[Trp(7-Me)][X6](Me3N+CH2CH2(OCH2CH2)4CO)[Pen][ξAEF][2Nal][Thp]EN[3Pal][NMeK]([AEEA-AEEA-γGlu-C18 diacid])-NH2; disulfide 1-6) | < 0.5 | 50 to 500
